pIC50: −log10 of the molar value. In the oligonucleotide strings, read from the 5' end, every base follows the letter of its sugar. An asterisk marks phosphorothioate; unmarked linkages are phosphodiester. Other units and linkages are bracketed, terminal groups are in braces. A string of capitals states the bases alone. d = 2'-deoxy (DNA); m = 2'-O-methyl; r = 2'-OH (RNA)

The test system of the data set is PCSK9 mRNA. Kind of data set: PCSK9 siRNA screening in HepG2 cells (lipofectamine 2000 transfection, PCSK9 mRNA by Quantigene, normalized to GAP-DH). The format is cell-based, human. The settings on record: for Mean percent remaining mRNA transcript at siRNA concentration/in cell type 30 nM/HepG2: 30 nM siRNA; for Mean percent remaining mRNA transcript at siRNA concentration/in cell type 100 nM/HepG2: 100 nM siRNA; for Mean percent remaining mRNA transcript at siRNA concentration/in cell type 3 nM/HepG2: 3 nM siRNA. The protocol: HuH-7 cells were obtained from JCRB Cell Bank (Japanese Collection of Research Bioresources) (Shinjuku, Japan, cat. No.: JCRB0403) Cells were cultured in Dulbecco's MEM (Biochrom AG, Berlin, Germany, cat. No. F0435) supplemented to contain 10% fetal calf serum (FCS) (Biochrom AG, Berlin, Germany, cat. No. S0115), Penicillin 100 U/ml, Streptomycin 100 μg/ml (Biochrom AG, Berlin, Germany, cat. No. A2213) and 2 mM L-Glutamin (Biochrom AG, Berlin, Germany, cat. No K0282) at 37° C. in an atmosphere with 5% CO2 in a humidified incubator (Heraeus HERAcell, Kendro Laboratory Products, Langenselbold, Germany) HepG2 and HeLa cells were obtained from American Type Culture Collection (Rockville, Md., cat. No. HB-8065) and cultured in MEM (Gibco Invitrogen, Karlsruhe, Germany, cat. No. 21090-022) supplemented to contain 10% fetal calf serum (FCS) (Biochrom AG, Berlin, Germany, cat. No. S0115), Penicillin 100 U/ml, Streptomycin 100 μg/ml (Biochrom AG, Berlin, Germany, cat. No. A2213), 1× Non Essential Amino Acids (Biochrom AG, Berlin, Germany, cat. No. K-0293), and 1 mM Sodium Pyruvate (Biochrom AG, Berlin, Germany, cat. No. L-0473) at 37° C. in an atmosphere with 5% CO2 in a humidified incubator (Heraeus HERAcell, Kendro Laboratory Products, Langenselbold, Germany).
For transfection with siRNA, HuH7, HepG2, or HeLa cells were seeded at a density of 2.0×10^4 cells/well in 96-well plates and transfected directly. Transfection of siRNA (30 nM for single dose screen) was carried out with lipofectamine 2000 (Invitrogen GmbH, Karlsruhe, Germany, cat. No. 11668-019) as described by the manufacturer.
24 hours after transfection HuH7 and HepG2 cells were lysed and PCSK9 mRNA levels were quantified with the Quantigene Explore Kit (Genosprectra, Dumbarton Circle Fremont, USA, cat. No. QG-000-02) according to the protocol. PCSK9 mRNA levels were normalized to GAP-DH mRNA. For each siRNA eight individual datapoints were collected. siRNA duplexes unrelated to PCSK9 gene were used as control. The activity of a given PCSK9 specific siRNA duplex was expressed as percent PCSK9 mRNA concentration in treated cells relative to PCSK9 mRNA concentration in cells treated with the control siRNA duplex.
Tables 1b and 2b (and FIG. 6A) summarize the results and provide examples of in vitro screens in different cell lines at different doses. Silencing of PCSK9 transcript was expressed as percentage of remaining transcript at a given dose.
Very active sequences are those that have less than 60% of transcript remaining after treatment with a dose less than or equal to 100 nM. Active sequences are those that have less than 90% transcript remaining after treatment with a high dose (100 nM).

Consider “AD-9627: PCSK9 siRNA (sense rArGrArGrArCrUrGrArUrCrCrArCrUrUrCrUrCdT*dT; antisense rGrArGrArArGrUrGrGrArUrCrArGrUrCrUrCrUdT*dT)”, for which the “Mean percent remaining mRNA transcript at siRNA concentration/in cell type 30 nM/HepG2” value is given as 69%.

With “AD-9526: PCSK9 siRNA (sense rUrCrCrCrArGrCrCrArGrGrArUrUrCrCrGrCrGdT*dT; antisense rCrGrCrGrGrArArUrCrCrUrGrGrCrUrGrGrGrAdT*dT)”, the “Mean percent remaining mRNA transcript at siRNA concentration/in cell type 30 nM/HepG2” value was found to be 89% and the “Mean percent remaining mRNA transcript at siRNA concentration/in cell type 100 nM/HepG2” value was 74%.

Turning to “AD-9618: PCSK9 siRNA (sense rGrArGrCrArUrGrGrArArUrCrCrCrGrGrCrCrCdT*dT; antisense rGrGrGrCrCrGrGrGrArUrUrCrCrArUrGrCrUrCdT*dT)”, the “Mean percent remaining mRNA transcript at siRNA concentration/in cell type 30 nM/HepG2” value is recorded as 90%.

As for “AD-9688: PCSK9 siRNA (sense mUmCmUmCmCmUrArGrAmCrAmCmCrArGmCrAmUrAdT*dT; antisense mUrArUrGrCrUrGrGrUrGrUrCmUrArGrGrArGrAdT*dT)”, the pIC50 (usually −log10 of the IC50, conventionally taken in molar units) was 8.38; the “Mean percent remaining mRNA transcript at siRNA concentration/in cell type 3 nM/HepG2” value was found to be 34%; the “Mean percent remaining mRNA transcript at siRNA concentration/in cell type 30 nM/HepG2” value came to 26%.

Regarding “AD-9672: PCSK9 siRNA (sense mUrArGmCmCmUmUrGmCrGmUmUmCmCrGrArGrGrAdT*dT; antisense rUrCrCrUrCrGrGrArArCrGmCrArArGrGrCmUrAdT*dT)”, the “Mean percent remaining mRNA transcript at siRNA concentration/in cell type 30 nM/HepG2” value came to 57%.

Turning to “AD-9747: PCSK9 siRNA (sense mUmCmUrGrGrAmUrGrGmCrAmUmCmUrArGmCmCrAdT*dT; antisense rUrGrGrCmUrArGrArUrGrCmCrArUrCmCrArGrAdT*dT)”, the “Mean percent remaining mRNA transcript at siRNA concentration/in cell type 30 nM/HepG2” value is given as 63%.

As for “AD-9665: PCSK9 siRNA (sense GGuGGAGGuGuAucuccuATsT; antisense uAGGAGAuAcACCUCcACCTsT; as printed in the source, key not given here)”, the “Mean percent remaining mRNA transcript at siRNA concentration/in cell type 30 nM/HepG2” value worked out at 83%.

Consider “AD-9636: PCSK9 siRNA (sense rCrArUrArCrArGrArGrUrGrArCrCrArCrCrGrGdT*dT; antisense rCrCrGrGrUrGrGrUrCrArCrUrCrUrGrUrArUrGdT*dT)”, for which the pIC50 was 8.68, the “Mean percent remaining mRNA transcript at siRNA concentration/in cell type 3 nM/HepG2” value is 41% and the “Mean percent remaining mRNA transcript at siRNA concentration/in cell type 30 nM/HepG2” value came to 42%.

Turning to “AD-9621: PCSK9 siRNA (sense rUrCrUrGrGrArUrGrGrCrArUrCrUrArGrCrCrAdT*dT; antisense rUrGrGrCrUrArGrArUrGrCrCrArUrCrCrArGrAdT*dT)”, the “Mean percent remaining mRNA transcript at siRNA concentration/in cell type 30 nM/HepG2” value was found to be 77%.

As for “AD-9559: PCSK9 siRNA (sense rGrUrGrArCrCrArCrCrGrGrGrArArArUrCrGrAdT*dT; antisense rUrCrGrArUrUrUrCrCrCrGrGrUrGrGrUrCrArCdT*dT)”, the “Mean percent remaining mRNA transcript at siRNA concentration/in cell type 30 nM/HepG2” value was found to be 35%.

With “AD-9589: PCSK9 siRNA (sense rCrArCrCrGrCrUrGrCrCrGrGrCrArArCrUrUrCdT*dT; antisense rGrArArGrUrUrGrCrCrGrGrCrArGrCrGrGrUrGdT*dT)”, the “Mean percent remaining mRNA transcript at siRNA concentration/in cell type 30 nM/HepG2” value turned out to be 85% and the “Mean percent remaining mRNA transcript at siRNA concentration/in cell type 100 nM/HepG2” value was 67%.

Take “AD-9704: PCSK9 siRNA (sense mCrAmUmUmUrAmUmCmUmUmUmUrGrGrGmUmCmUrGdT*dT; antisense mCrArGrArCrCmCrArArArArGrAmUrArArArUrGdT*dT)”: the “Mean percent remaining mRNA transcript at siRNA concentration/in cell type 30 nM/HepG2” value stood at 111%.

With “AD-9720: PCSK9 siRNA (sense rGmCmUrGmCmCrGrGmCrArAmCmUmUmCmCrGrGrGdT*dT; antisense rCrCrCrGrGrArArGrUrUrGrCrCrGrGmCrArGrCdT*dT)”, the “Mean percent remaining mRNA transcript at siRNA concentration/in cell type 30 nM/HepG2” value is given as 92%.

Turning to “AD-9575: PCSK9 siRNA (sense rCrCrGrCrUrGrCrCrGrGrCrArArCrUrUrCrCrGdT*dT; antisense rCrGrGrArArGrUrUrGrCrCrGrGrCrArGrCrGrGdT*dT)”, the “Mean percent remaining mRNA transcript at siRNA concentration/in cell type 30 nM/HepG2” value came out at 120%.

Regarding “AD-9572: PCSK9 siRNA (sense rCrCrArGrGrUrGrCrUrGrCrCrUrGrCrUrArCrCdT*dT; antisense rGrGrUrArGrCrArGrGrCrArGrCrArCrCrUrGrGdT*dT)”, the “Mean percent remaining mRNA transcript at siRNA concentration/in cell type 30 nM/HepG2” value came out at 53% and the “Mean percent remaining mRNA transcript at siRNA concentration/in cell type 100 nM/HepG2” value is 47%.

In the case of “AD-9623: PCSK9 siRNA (sense rGrUrCrArGrCrUrCrCrArGrGrCrGrGrUrCrCrUdT*dT; antisense rArGrGrArCrCrGrCrCrUrGrGrArGrCrUrGrArCdT*dT)”, the “Mean percent remaining mRNA transcript at siRNA concentration/in cell type 30 nM/HepG2” value is listed as 66% and the “Mean percent remaining mRNA transcript at siRNA concentration/in cell type 100 nM/HepG2” value is listed as 43%.

“AD-9727: PCSK9 siRNA (sense rArGrGrGmUmCrAmUrGrGmUmCrAmCmCrGrAmCmUdT*dT; antisense rArGrUrCrGrGrUrGrArCmCrArUrGrArCrCrCrUdT*dT)”: the “Mean percent remaining mRNA transcript at siRNA concentration/in cell type 30 nM/HepG2” value was found to be 118%.

For the substance “AD-9598: PCSK9 siRNA (sense rCrCrUrGrGrUrGrGrArGrGrUrGrUrArUrCrUrCdT*dT; antisense rGrArGrArUrArCrArCrCrUrCrCrArCrCrArGrGdT*dT)”, the “Mean percent remaining mRNA transcript at siRNA concentration/in cell type 30 nM/HepG2” value is given as 83% and the “Mean percent remaining mRNA transcript at siRNA concentration/in cell type 100 nM/HepG2” value was 69%.

Regarding “AD-9610: PCSK9 siRNA (sense rArGrGrUrGrUrArUrCrUrCrCrUrArGrArCrArCdT*dT; antisense rGrUrGrUrCrUrArGrGrArGrArUrArCrArCrCrUdT*dT)”, the pIC50 was 10.40, the “Mean percent remaining mRNA transcript at siRNA concentration/in cell type 3 nM/HepG2” value came to 34% and the “Mean percent remaining mRNA transcript at siRNA concentration/in cell type 30 nM/HepG2” value is 36%.

On to “AD-9529: PCSK9 siRNA (sense rGrGrGrArUrArCrCrUrCrArCrCrArArGrArUrCdT*dT; antisense rGrArUrCrUrUrGrGrUrGrArGrGrUrArUrCrCrCdT*dT)”, for which the “Mean percent remaining mRNA transcript at siRNA concentration/in cell type 30 nM/HepG2” value worked out at 60%.

In the case of “AD-9616: PCSK9 siRNA (sense rArGrCrArCrCrUrGrCrUrUrUrGrUrGrUrCrArCdT*dT; antisense rGrUrGrArCrArCrArArArGrCrArGrGrUrGrCrUdT*dT)”, the “Mean percent remaining mRNA transcript at siRNA concentration/in cell type 30 nM/HepG2” value amounted to 84% and the “Mean percent remaining mRNA transcript at siRNA concentration/in cell type 100 nM/HepG2” value is reported as 74%.

Consider “AD-9533: PCSK9 siRNA (sense rGrArCrCrArCrCrGrGrGrArArArUrCrGrArGrGdT*dT; antisense rCrCrUrCrGrArUrUrUrCrCrCrGrGrUrGrGrUrCdT*dT)”, for which the “Mean percent remaining mRNA transcript at siRNA concentration/in cell type 30 nM/HepG2” value came out at 100%.

As to “AD-9654: PCSK9 siRNA (sense mCrGrGmUrAmCmCrGrGrGmCrGrGrAmUrGrArAmUdT*dT; antisense rArUrUmCrArUrCrCrGrCrCrCrGrGmUrArCrCrGdT*dT)”, the “Mean percent remaining mRNA transcript at siRNA concentration/in cell type 30 nM/HepG2” value was 107%.

In the case of “AD-9699: PCSK9 siRNA (sense rAmUrGrGmUmCrAmCmCrGrAmCmUmUmCrGrArGrAdT*dT; antisense rUrCrUrCrGrArArGrUrCrGrGrUrGrArCmCrArUdT*dT)”, the pIC50 was 8.60, the “Mean percent remaining mRNA transcript at siRNA concentration/in cell type 3 nM/HepG2” value is 36% and the “Mean percent remaining mRNA transcript at siRNA concentration/in cell type 30 nM/HepG2” value came to 32%.

The record behind these values is patent publication US20120016009A1, “Optimized Methods For Delivery Of DSRNA Targeting The PCSK9 Gene” (priority 2008, published 2012).
